Test results taken from patent US7351861B2 (priority 2002, dated 2008).
Read-outs that look alike come from different tables or passages of the source.

Legend:
Type in all cases: cell-based, Yersinia pseudotuberculosis
[1] = tested on: Yop secretion from the wild-type strain pIB102EL; details: supernatant after 3 h at 37° C., Western analysis
[2] = tested on: luciferase light signal from pIB29EL (yopE-luxAB); experiment: microbe, parasite or virus in culture; details: pIB29EL; for Inhibition (%) of the luciferase light signal: Table 2A
[3] = tested on: reporter gene signal from pIB102FΔhlhL (lcrFΔhlh-luxAB)
[4] = tested on: luciferase light signal from pIB102AL (luxAB downstream of the promoter for YerA)
[5] = tested on: luciferase light signal from pIB102EL (yopE-luxAB, wild-type); experiment: microbe, parasite or virus in culture; details: pIB102EL; FIG. 5C
[6] = tested on: reporter gene signal from pIB102FL (lcrF-luxAB)

## CC(=O)Oc1c(I)cc(I)cc1C(=O)Nc1ccc(Cl)cc1 [Compound 4, 2-acetoxy-4′-chloro-3,5-diiodobenzanilide]
[1]
  Inhibition of Yop secretion into the surrounding medium (in words): dose dependent inhibition of secretion
[2]; Yersinia pseudotuberculosis, read-out: Inhibition (%) of the luciferase light signal, 5 μM (first of two columns headed 5), Table 2B
  inhibition at 5 µM: 15%
[2]; Yersinia pseudotuberculosis, read-out: Inhibition (%) of the luciferase light signal, 5 μM (second of two columns headed 5), Table 2B
  inhibition at 5 µM: 45%
[2]; Yersinia pseudotuberculosis, read-out: Inhibition (%) of the luciferase light signal, 10 μM, Table 2B
  inhibition at 10 µM: 81%
[2]; Yersinia pseudotuberculosis, read-out: Inhibition (%) of the luciferase light signal, 20 μM, Table 2B
  inhibition at 20 µM: 96%
[3]
  Effect on reporter gene signal (in words): inhibits the reporter gene signal
[4]
  Effect on reporter gene signal (in words): inhibits the reporter gene signal
  Selectivity between pIB102EL (YopE promoter) and control strain pIB102AL (in words): no selectivity
[5]
  Effect on reporter gene signal (in words): inhibits the reporter gene signal
[6]
  Effect on reporter gene signal (in words): inhibits the reporter gene signal

## O=C(Nc1ccc(Cl)c(Cl)c1)c1cc(Cl)ccc1NS(=O)(=O)c1cccc2nsnc12 [Compound 5]
[1]
  Inhibition of Yop secretion into the surrounding medium (in words): dose dependent inhibition of secretion
[2]; 10 μM
  Inhibition (%) of the luciferase light signal: 35%
[2]; 20 μM
  Inhibition (%) of the luciferase light signal: 60%
[2]; 50 μM
  Inhibition (%) of the luciferase light signal: 69%
[2]; 100 μM
  Inhibition (%) of the luciferase light signal: 66%
[3]
  Effect on reporter gene signal (in words): modest enhancement
[4]
  Selectivity between pIB102EL (YopE promoter) and control strain pIB102AL (in words): stronger inhibitory effect on the wild-type strain pIB102EL
[6]
  Effect on reporter gene signal (in words): minor inhibition
